Key:
Oli-neu oligodendrocytes = assay: Process retraction in Oli-neu oligodendrocytes (Phalloidin+ processes per cell); assay type: cell-based, mouse; details: 24 hours, PAR1-AP 100 μM, Klk1 300 nM
Description: Oli-neu oligodendrocytes are derived from mouse primary oligodendrocyte cultures retrovirally transduced to constitutively express the t-neu oncogene (Jung et al., Eur J Neurosci 7:1245-1265, 1995). All morphology, signaling, and myelin gene expression studies using Oli-neu oligodendrocytes were performed in media containing DMEM, 1% N2, 2 mM Glutamax, 1 mM sodium pyruvate, 20 mM HEPES buffer, and 50 μM β-mercaptoethanol (Sigma Aldrich. To evaluate PAR and Klk6 gene expression in Oli-neu (Table 2), cells were differentiated by treatment with 1 mM N^6, 2′-O-dibutyryladenosine 3′, 5′-cyclic monophosphate disodium salt (dbcAMP) for 72 hours prior to harvesting for RNA isolation. All cells were maintained at 37° C. in 95% air and 5% CO2. Cell culture reagents were obtained from Life Technologies (Carlsbad, CA) unless otherwise indicated. All cell culture experiments were performed in triplicate and repeated at least twice.
PAR agonist-induced changes in oligodendrocyte morphology: To determine the effects of recombinant Klk6, Klk1, thrombin, or PAR1-AP on oligodendroglia, 3 DIV PAR1^+/+, PAR1^−/−, and PAR2^−/− oligodendrocytes, PAR1^+/+ OPCs immediately post purification, or Oli-neu cells were grown on cover slips in the presence of agonists for 24 h. For ATP toxicity assays, oligodendrocytes were incubated with ATP (50 μM, Sigma Aldrich) in the presence of Klk6 or Klk1. Following each treatment, oligodendrocyte and OPC cultures were immunolabeled for O4 to visualize the cell body and processes. Oli-neu processes were visualized by staining the actin cytoskeleton with Cy3-conjugated Phalloidin.
To assess the effects of Klk6 and other PAR1 agonists on oligodendrocyte morphology and process stability, 20× digital micrographs were overlaid with a 780 μm^2 grid and ImageJ software 1.45r (National Institutes of Health) used to record cell number and the number of processes crossing horizontal grid lines (Scarisbrick et al., Brain 125:1283-1296, 2002). Data are expressed as the mean number of O4^+ or Phalloidin^+ processes per DAPI^+ cell (±SEM).

Erk1/2 phosphorylation = assay: Klk6-PAR signaling assay, Erk1/2 phosphorylation by Western blot in Oli-neu; assay type: cell-based, mouse; details: treatment alone; Klk6 10 minutes
Description: Klk6-PAR signaling assays: To examine the ability of Klk6 to mediate PAR-dependent signaling in oligodendrocytes, Oli-neu oligodendroglia (3.5×10^5 cells/well in six-well plates) were treated with Klk6 (150 nM) for 10 min, followed by protein harvest. Cell lysates were analyzed for phosphorylated or nonphosphorylated Erk1/2 by Western blot. In experiments to determine the role of PARs in Klk6 signaling, Oli-neu were preincubated with the PAR1 antagonist, SCH79797 dihydrochloride (50 nM, Tocris Biosciences, Minneapolis, MN) for 30 minutes prior to Klk6 application.
Western blot: Oli-neu lysates were obtained using a buffer containing 1% NP40, 0.5% deoxycholate, 10% glycerol, and 20 mM Tris base and separated on SDS-polyacrylamide gels prior to transfer. Membranes were blocked with 5% milk in TBS-T and incubated overnight with primary antibodies including rabbit anti-phospho-Erk1/2 (1:1,000, Cell Signaling Technology, Danvers, MA), followed with a species-appropriate horseradish peroxidase-conjugated secondary antibody (1:20,000 GE Healthcare Unlimited, UK). Signal was detected using Chemiluminescence Supersignal Pico (Pierce, Rockford, IL). Western blots were repeated three times from independent cultures, scanned, and quantified by densitometry (BioRad Quantity One 1-D Analysis Software, BioRad, Hercules, CA). Erk1/2 signal was normalized to its nonphosphorylated form. Equal loading was verified by reprobing blots for […] (Novus Biologicals, Littleton, CO).

## Klk6: Recombinant murine kallikrein-related peptidase 6 expressed using a baculovirus system
Oli-neu oligodendrocytes; Klk6 30 nM
  Oli-neu cell number: small but significant increase
Oli-neu oligodendrocytes; Klk6 30, 150, 300 nM, thrombin 270 nM
  number of processes per cell: significant and dose-dependent
Erk1/2 phosphorylation
  Erk1/2 phosphorylation: nearly four-fold increase
